# Results taken from ChEMBL document CHEMBL3862012, “Methylene versus carbonyl bridge in the structure of new tubulin polymerization inhibitors with tricyclic A-rings” (Bioorg Med Chem, 2016).
# Legend:
# Format in all cases: functional
# [1] = Cytotoxicity against human K562 cells assessed as growth inhibition at 10 uM after 48 hrs by SRB assay relative to control; conditions: K562, 48 h, read-out: GI
# [2] = Cytotoxicity against human MOLT4 cells assessed as growth inhibition at 10 uM after 48 hrs by SRB assay relative to control; conditions: MOLT-4, 48 h, read-out: GI
# [3] = Cytotoxicity against human RPMI8226 cells assessed as growth inhibition at 10 uM after 48 hrs by SRB assay relative to control; conditions: RPMI-8226, 48 h, read-out: GI
# [4] = Cytotoxicity against human SR cells assessed as growth inhibition at 10 uM after 48 hrs by SRB assay relative to control; conditions: read-out: GI
# [5] = Cytotoxicity against human HOP92 cells assessed as growth inhibition at 10 uM after 48 hrs by SRB assay relative to control; conditions: HOP-92, 48 h, read-out: GI
# [6] = Cytotoxicity against human NCI-H226 cells assessed as growth inhibition at 10 uM after 48 hrs by SRB assay relative to control; conditions: NCI-H226, 48 h, read-out: GI
# [7] = Cytotoxicity against human SNB19 cells assessed as growth inhibition at 10 uM after 48 hrs by SRB assay relative to control; conditions: SNB-19, 48 h, read-out: GI
# [8] = Cytotoxicity against human MALME-3M cells assessed as growth inhibition at 10 uM after 48 hrs by SRB assay relative to control; conditions: read-out: GI
# [9] = Cytotoxicity against human SK-MEL-2 cells assessed as growth inhibition at 10 uM after 48 hrs by SRB assay relative to control; conditions: SK-MEL-2, 48 h, read-out: GI
# [10] = Cytotoxicity against human SK-MEL-5 cells assessed as growth inhibition at 10 uM after 48 hrs by SRB assay relative to control; conditions: SK-MEL-5, 48 h, read-out: GI
# [11] = Cytotoxicity against human UACC257 cells assessed as growth inhibition at 10 uM after 48 hrs by SRB assay relative to control; conditions: UACC-257, 48 h, read-out: GI
# [12] = Cytotoxicity against human IGROV1 cells assessed as growth inhibition at 10 uM after 48 hrs by SRB assay relative to control; conditions: IGROV-1, 48 h, read-out: GI
# [13] = Cytotoxicity against human NCI-ADR-RES cells assessed as growth inhibition at 10 uM after 48 hrs by SRB assay relative to control; conditions: read-out: GI
# [14] = Cytotoxicity against human SKOV3 cells assessed as growth inhibition at 10 uM after 48 hrs by SRB assay relative to control; conditions: SK-OV-3, 48 h, read-out: GI
# [15] = Cytotoxicity against human Caki1 cells assessed as growth inhibition at 10 uM after 48 hrs by SRB assay relative to control; conditions: CAKI-1, 48 h, read-out: GI
# [16] = Cytotoxicity against human SN12C cells assessed as growth inhibition at 10 uM after 48 hrs by SRB assay relative to control; conditions: read-out: GI
# [17] = Cytotoxicity against human PC3 cells assessed as growth inhibition at 10 uM after 48 hrs by SRB assay relative to control; conditions: PC-3, 48 h, read-out: GI
# [18] = Cytotoxicity against human DU145 cells assessed as growth inhibition at 10 uM after 48 hrs by SRB assay relative to control; conditions: DU-145, 48 h, read-out: GI
# [19] = Cytotoxicity against human MDA-MB-468 cells assessed as growth inhibition at 10 uM after 48 hrs by SRB assay relative to control; conditions: MDA-MB-468, 48 h, read-out: GI
# [20] = Cytotoxicity against human K562 cells assessed as growth inhibition after 48 hrs by SRB assay; conditions: K562, 48 h
# [21] = Cytotoxicity against human SR cells assessed as growth inhibition after 48 hrs by SRB assay
# [22] = Cytotoxicity against human HCC2998 cells assessed as growth inhibition after 48 hrs by SRB assay; conditions: HCC 2998, 48 h
# [23] = Cytotoxicity against human HT-29 cells assessed as growth inhibition after 48 hrs by SRB assay; conditions: HT-29, 48 h
# [24] = Cytotoxicity against human SW620 cells assessed as growth inhibition after 48 hrs by SRB assay; conditions: SW-620, 48 h
# [25] = Cytotoxicity against human SK-MEL-28 cells assessed as growth inhibition after 48 hrs by SRB assay; conditions: SK-MEL-28, 48 h
# [26] = Cytotoxicity against human CCRF-CEM cells assessed as growth inhibition after 48 hrs by SRB assay
# [27] = Cytotoxicity against human HL-60(TB) cells assessed as growth inhibition after 48 hrs by SRB assay; conditions: HL-60, 48 h
# [28] = Cytotoxicity against human NCI-H460 cells assessed as growth inhibition after 48 hrs by SRB assay; conditions: NCI-H460, 48 h
# [29] = Cytotoxicity against human NCI-H522 cells assessed as growth inhibition after 48 hrs by SRB assay; conditions: NCI-H522, 48 h
# [30] = Cytotoxicity against human SF268 cells assessed as growth inhibition after 48 hrs by SRB assay; conditions: SF-268, 48 h
# [31] = Cytotoxicity against human SF295 cells assessed as growth inhibition after 48 hrs by SRB assay; conditions: SF-295, 48 h
# [32] = Cytotoxicity against human SNB75 cells assessed as growth inhibition after 48 hrs by SRB assay; conditions: SNB-75, 48 h
# [33] = Cytotoxicity against human SK-MEL-2 cells assessed as growth inhibition after 48 hrs by SRB assay; conditions: SK-MEL-2, 48 h
# [34] = Cytotoxicity against human UACC62 cells assessed as growth inhibition after 48 hrs by SRB assay; conditions: UACC-62, 48 h
# [35] = Cytotoxicity against human LOXIMVI cells assessed as growth inhibition after 48 hrs by SRB assay; conditions: LOX IMVI
# [36] = Cytotoxicity against human SK-MEL-5 cells assessed as growth inhibition after 48 hrs by SRB assay; conditions: SK-MEL-5, 48 h
# [37] = Cytotoxicity against human OVCAR3 cells assessed as growth inhibition after 48 hrs by SRB assay; conditions: OVCAR-3, 48 h
# [38] = Cytotoxicity against human OVCAR8 cells assessed as growth inhibition after 48 hrs by SRB assay; conditions: OVCAR-8, 48 h
# [39] = Cytotoxicity against human NCI-ADR-RES cells assessed as growth inhibition after 48 hrs by SRB assay
# [40] = Cytotoxicity against human RXF393 cells assessed as growth inhibition after 48 hrs by SRB assay; conditions: RXF 393, 48 h
# [41] = Cytotoxicity against human UO31 cells assessed as growth inhibition after 48 hrs by SRB assay; conditions: UO-31, 48 h
# [42] = Cytotoxicity against human ACHN cells assessed as growth inhibition after 48 hrs by SRB assay
# [43] = Cytotoxicity against human PC3 cells assessed as growth inhibition after 48 hrs by SRB assay; conditions: PC-3, 48 h
Compound,inhibition of growth at 10 µM [2],inhibition of growth at 10 µM [3],inhibition of growth at 10 µM [4],inhibition of growth at 10 µM [5],inhibition of growth at 10 µM [6],inhibition of growth at 10 µM [7],inhibition of growth at 10 µM [8],inhibition of growth at 10 µM [9],inhibition of growth at 10 µM [11],inhibition of growth at 10 µM [12],inhibition of growth at 10 µM [13],inhibition of growth at 10 µM [14],inhibition of growth at 10 µM [15],inhibition of growth at 10 µM [17],inhibition of growth at 10 µM [18],inhibition of growth at 10 µM [19],GI50 [20],GI50 [21],GI50 [22],GI50 [23],other results
COc1ccc(CN2c3ccccc3Sc3ccccc32)c(F)c1,77%,88%,88%,67%,44%,59%,43%,70%,48%,50%,78%,70%,78%,70%,79%,98%,38 nM,60 nM,5060 nM,35 nM,inhibition of growth at 10 µM [1]: 91%; inhibition of growth at 10 µM [10]: 74%; inhibition of growth at 10 µM [16]: 53%; GI50 [24]: 36 nM; GI50 [25]: 5050 nM
COc1ccc(CN2c3ccccc3Sc3ccccc32)c(C(F)(F)F)c1,76%,71%,88%,61%,42%,67%,7%,96%,46%,57%,77%,82%,67%,73%,79%,81%,395 nM,483 nM,2000 nM,681 nM,GI50 [26]: 454 nM; GI50 [27]: 412 nM; GI50 [28]: 456 nM; GI50 [29]: 314 nM; GI50 [24]: 443 nM; GI50 [30]: 10900 nM; GI50 [31]: 320 nM; GI50 [32]: 241 nM; GI50 [33]: 1180 nM; GI50 [34]: 917 nM; GI50 [35]: 832 nM; GI50 [36]: 500 nM; GI50 [37]: 513 nM; GI50 [38]: 2220 nM; GI50 [39]: 462 nM; GI50 [40]: 380 nM; GI50 [41]: 3980 nM; GI50 [42]: 666 nM; GI50 [43]: 546 nM
